# Data taken from patent US20230080270A1, “NANOPARTICLES ENCAPSULATING SMALL MOLECULES” (ETH ZURICH, priority 2020, published 2023).
# Values joined by “and” are separate entries in the source; they are usually repeats but may differ in a detail not shown here. Equal values may be shown once.
# Tests used:
# HeLa cells [1] = test: Flow cytometry of cellular uptake in HeLa cells; assay type: cell-based, human; settings: 500 nM Nile Red, population gating based on the PBS control
# Description: (§1) Cell culture. HeLa cells were maintained in Dulbecco's Modified Eagle Medium (high glucose) supplemented with 10% fetal bovine serum (FBS), 2 mM L-glutamine, 2 mM GlutaMAX and 1 μg/mL gentamicin. Cells were cultured in 5% CO2 at 37° C. and typically split in a 1:4 ratio every 3 days. Only passage numbers between 7-20 were used for all experiments.
# Flow cytometry. HeLa cells were seeded at a density of 30,000 cells per well in a 24-well plate in 500 μL of culture medium and allowed to recover at 37° C. and 5% CO2 for 24 hours to reach 60-80% confluency. Both OP protein and surfactant solutions were sterilized by filtration through a 0.22 μm membrane, and stocks were prepared in sterile PBS. Nile Red solution (50 μM) in 1:1 EtOH:H2O was used without sterilization. OP capsid-micelle complexes were prepared as described above. For each well 20 μL of sample in PBS was added to 200 μL of culture media to give the final concentration of 200 nM. Cells were incubated for 16-20 h in 5% CO2 at 37° C. before washing with PBS and trypsinization (0.05% Trypsin-EDTA (Thermo Fisher Scientific, USA), 4 minutes at 37° C.). Cells were collected in cold culture medium and washed twice with cold PBS before resuspension in flow cytometry buffer (PBS with 5% FBS).
# [2] = cited from earlier work
# [3] = in PBS buffer; cited from earlier work
# HeLa cells [4] = test: Cell viability assay (WST-8-based Cell Counting Kit-8); parameters: species or system human; settings: 2.5 μM lapatinib, 18 hour incubation
# Description: as §1
# Cell viability assay. Cytotoxicity was assessed using the WST-8-based Cell Counting Kit-8 from Sigma according to the manufacturer's instructions. HeLa cells were seeded at a density of 5,000 cells per well in a 96-well plate in 100 μL of culture medium and allowed to recover at 37° C. and 5% CO2 for 24 hours. Protein, surfactant and drug samples were prepared by serial dilution in sterile PBS. As a negative control 10 μL of 10% Triton X-100 in PBS were used per well. The positive control was just PBS. […] The plate was then incubated for 2-4 hours at 37° C. and 5% CO2 before measuring absorbance at 450 nm. The absorbance of CKK-8 in culture media, without cells, was used for background subtraction and samples were normalized to untreated cells to provide the values shown in FIG. 4e,f. Samples were measured in sextuplicate with biological replicates of different protein batches.
# [5] = Nile Red fluorescence titration (surfactant content and cargo capacity); assay type: physicochemical; settings: two equivalents of Nile Red, increasing SDS content
# Description: Nile Red fluorescence. For a typical fluorimetry experiment, 800 μL samples in PBS buffer were used. For the surfactant loading kinetics the ionic strength was adjusted by dissolving appropriate amounts of NaCl in PBS buffer. Stock solutions of Nile Red in acetone:water (1:1 v/v), or DMSO at concentrations of 50-500 μM were used. The excitation wavelength was set to 535 nm for all experiments.
# This number fits with a value of —730 calculated from the volumetric capacity of the OP cavity (˜256 nm^3) and the average volume occupied by an SDS molecule in a micelle (Methods section).
# As cargo-carrying is an important characteristic of the protein-micelle complex, the inventors also used fluorescence titration to determine the number of Nile Red molecules that could be accommodated per cage. Single equivalents of Nile Red were added stepwise to a solution of OP:SDS complexes and the fluorescence spectra measured for each addition (FIG. 3d). Between 1-5 molecules of Nile Red per cage, a logarithmic increase in fluorescence emission is observed with each equivalent. From 5-20 molecules of Nile Red a steady decrease in fluorescence is observed, and above 20 a steady increase in fluorescence is observed. We attribute these three distinct stages to: i) Nile Red encapsulation, ii) self-quenching and iii) excess free dye. […]
# [6] = Effective concentration / volumetric capacity calculations; settings: OP cavity ~256 nm^3; SDS micelle radius 17.5 Å, aggregation number 64
# From the text: Effective concentration calculations. The volume of the OP lumenal cavity (255,528 A) was estimated as a sphere with a radius of 39.4 A. This radius determined by averaging the distances between lumenally exposed residues from the reported crystal structure (Edwardson et al., 2018, op. cit.), using the UCSF Chimera software (Pettersen, E. F. et al. UCSF Chimera—a visualization system for exploratory research and analysis. J. Comput. Chem. 25, 1605-1612 (2004)). The effective concentration of SDS was simply estimated as the number of moles SDS per lumenal cavity volume. The expected number of SDS molecules was estimated by first determining the volume occupied by an individual SDS molecule in a micelle, from the reported average values of SDS micelle radius (17.5 Å) and aggregation number (n=64). Division of the OP cavity volume by the average volume of a single SDS molecule packed into micellar aggregates gives an estimated value of 729 molecules per OP cage, which is within error of the volume estimations and experimental results, which approximate 800 molecules.
# [7] = Native agarose gel electrophoresis of OP with increasing SDS equivalents; assay type: physicochemical; settings: up to 2000 SDS molecules per cage
# From the text: Native agarose gel electrophoresis.
# Cage-templated micelle formation. Sodium dodecyl sulfate (SDS) was chosen as the anionic surfactant (FIG. 2a), due to its aqueous solubility and the potential for favourable hydrogen bond formation between the sulfate headgroup and the many arginine residues on the interior surface of the OP capsid. As SDS is typically used as a protein denaturant, the inventors were curious if charge and shape complementarity of the OP cage could be leveraged to drive formation of a scaffolded micelle, rather than allowing hydrophobic interactions with the protein core to dominate, a pathway that leads to disruption of protein structure. As such, OP was subject to increasing molar equivalents of SDS, up to 2000 molecules per cage, and analyzed by native gel electrophoresis (FIG. 2b).
molecule,measurement,setting,value
CCN(CC)c1ccc2nc3c4ccccc4c(=O)cc-3oc2c1 [Nile Red],fraction of cells Nile Red positive,HeLa cells [1],58%
same,solubility limit in organic solvents,[2],< 5 mM
"CCCCCCCCCCCCOS(=O)(=O)[O-].[Na+] [SDS, Sodium dodecyl sulfate]",critical micelle concentration,[3],4 to 5 mM
CS(=O)(=O)CCNCc1ccc(-c2ccc3ncnc(Nc4ccc(OCc5cccc(F)c5)c(Cl)c4)c3c2)o1 [lapatinib],effect on cell viability,HeLa cells [4],negligible effect
"OP: 24-mer octahedral porous protein cage with positively charged interior, polypeptide SEQ ID NO: 2 (protein, 24-mer cage assembly) MSQAIGILELRSIAAGMELGDAMLKSANVDLLVSKTISRGKFLLMLGGDIGAIQQAIETGTSQAGRLLVDSLVLANIHPSVLPAISGLNSVDKRQAVGIVETRSVAACISAADRAVKGSNVTLVRVHMARGIGGKCYMVVAGDVSDVALAVTVASSSAGAYGRLVYASLIPRPHEAMWRQMVEGLEHHHHHH",surfactant molecules per cage at plateau of Nile Red fluorescence,[5],~800 molecules per cage
same,SDS molecules per OP cage calculated from cavity volume and volume of an SDS molecule in a micelle,[6],729 molecules per OP cage and 730 molecules per OP cage
same,SDS equivalents per protein cage up to which no change to quaternary structure,[7],approximately 800 equivalents of SDS per protein cage
